Test results published in US9695155B2, “Herbicidal substituted pyrimidinyloxy benzene compounds” (E. I. DU PONT DE NEMOURS AND COMPANY, priority 2013, dated 2017).

Assays:
[1] = test system: large (Lg) crabgrass; assay: Test C preemergence; format: in vivo, Digitaria sanguinalis
Excerpt: (§1) Seeds of plant species selected from blackgrass (Alopecurus myosuroides), Italian ryegrass (Lolium multiflorum), wheat, winter (winter wheat, Triticum aestivum), galium (catchweed bedstraw, Galium aparine), corn (Zea mays), large (Lg) crabgrass (Digitaria sanguinalis), giant foxtail (Setaria faberii), johnsongrass (Sorghum halepense), lambsquarters (Chenopodium album), morningglory (Ipomoea coccinea), yellow nutsedge (Cyperus esculentus), pigweed (Amaranthus retroflexus), ragweed (common ragweed, Ambrosia elatior), soybean (Glycine max), barnyardgrass (Echinochloa crus-galli), oilseed rape (Brassica napus), waterhemp (common waterhemp, Amaranthus rudis), kochia (Kochia scoparia), wild oat (Avena fatua), surinam grass (Brachiaria decumbens), foxtail, green (green foxtail, Setaria viridis), goosegrass (Eleusine indica), bromegrass, downy (downy bromegrass, Bromus tectorum), nightshade (eastern black nightshade, Solanum ptycanthum), cocklebur (common cocklebur, Xanthium strumarium), cupgrass, woolly (woolly cupgrass, Eriochloa villosa), bermudagrass (Cynodon dactylon), sunflower, (common oilseed sunflower, Helianthus annuus), Russian thistle (Salsola kali), and velvetleaf (Abutilon theophrasti) were planted into a blend of loam soil and sand and treated preemergence with test chemicals formulated in a non-phytotoxic solvent mixture which included a surfactant.
(§2) At the same time, plants selected from these crop and weed species and also barley, winter (winter barley, Hordeum vulgare), windgrass (Apera spica-venti), chickweed (common chickweed, Stellaria media), deadnettle (henbit deadnettle, Lamium amplexicaule), and canarygrass (littleseed canarygrass, Phalaris minor) were planted in pots containing Redi-Earth® planting medium (Scotts Company, 14111 Scottslawn Road, Marysville, Ohio 43041) comprising spaghnum peat moss, vermiculite, wetting agent and starter nutrients and treated with postemergence applications of test chemicals formulated in the same manner. Plants ranged in height from 2 to 18 cm (1- to 4-leaf stage) for postemergence treatments. Treated plants and controls were maintained in a greenhouse for 13 to 15 days, after which time all species were compared to controls and visually evaluated. Plant response ratings, summarized in Table C, are based on a scale of 0 to 100 where 0 is no effect and 100 is complete control. A dash (-) response means no test result.

[2] = test system: lambsquarters; assay: Test C preemergence; format: in vivo, Chenopodium album
Excerpt: as §1, §2

[3] = test system: rice; assay: Test B flooded paddy test; format: in vivo, Oryza sativa; settings: Flood, 250 g ai/ha, 0 to 100 scale where 0 is no effect and 100 is complete control
In short: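 Post-emergence paddy-water application at the 2-leaf stage, with 3 cm flood kept for the whole test. Response was judged visually relative to controls after 13 to 15 greenhouse days, 0 indicating no effect and 100 complete control.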

[4] = test system: johnsongrass; assay: Test C preemergence; format: in vivo, Sorghum halepense
Excerpt: as §1, §2

[5] = 16 g ai/ha, preemergence, scale 0 to 100 (0 no effect, 100 complete control)
[6] = 62 g ai/ha, preemergence, scale 0 (no effect) to 100 (complete control)
[7] = 125 g ai/ha, preemergence, scale 0 (no effect) to 100 (complete control)
[8] = Preemergence, 31 g ai/ha, scale 0 to 100, 0 no effect, 100 complete control
[9] = Preemergence, 62 g ai/ha, scale 0 to 100, 0 no effect, 100 complete control

| SMILES | Crabgrass, Large plant response rating [1, 5] | Crabgrass, Large plant response rating [1, 6] | Crabgrass, Large plant response rating [1, 7] | Plant response rating, Crabgrass, Large [1, 8] | Lambsquarters plant response rating [2, 5] | Lambsquarters plant response rating [2, 6] | Lambsquarters plant response rating [2, 7] | Plant response rating, Rice [3] | Johnsongrass plant response rating [4, 5] | Johnsongrass plant response rating [4, 6] | Johnsongrass plant response rating [4, 7] | Plant response rating, Crabgrass, Large [1, 9] | Plant response rating, Lambsquarters [2, 9] | Plant response rating, Johnsongrass [4, 9] | other results |
| --- | --- | --- | --- | --- | --- | --- | --- | --- | --- | --- | --- | --- | --- | --- | --- |
| COc1cnn(-c2c(C#N)cccc2Oc2ncc(Cl)cn2)c1 [Compound 137] | 10 | 98 | 100 | 70 | 100 | 100 | 100 | 0 | 0 | 5 | 45 | – | – | – | – |
| N#Cc1cnn(-c2c(CF)cccc2Oc2ncc(F)cn2)c1 [Compound 151] | 5 | 98 | 100 | 85 | 100 | 100 | 100 | 20 | 0 | 50 | 65 | – | – | – | – |
| FCc1cccc(Oc2ncc(Cl)cn2)c1-n1cc(Cl)cn1 [Compound 250] | 75 | – | 100 | – | 90 | – | 100 | 0 | 0 | – | 70 | 98 | 100 | 35 | – |
| N#Cc1cccc(Oc2ncc(Cl)cn2)c1-n1cnc(C(F)(F)F)c1 [Compound 252, 3-[(5-chloro-2-pyrimidinyl)oxy]-2-[4-(trifluoromethyl)-1H-imidazol-1-yl]benzonitrile] | – | – | – | – | – | – | – | – | – | – | – | – | – | – | pest or weed control at 16 g/ha ([1]; Digitaria sanguinalis, pre-emergence, 16 g ai/ha, preemergence, scale 0 to 100 (0 no effect, 100 complete control), read-out: Crabgrass, Large plant response rating): 60%; pest or weed control at 125 g/ha ([1]; Digitaria sanguinalis, pre-emergence, 125 g ai/ha, preemergence, scale 0 (no effect) to 100 (complete control), read-out: Crabgrass, Large plant response rating): 100%; pest or weed control at 62 g/ha ([1]; Digitaria sanguinalis, pre-emergence, Preemergence, 62 g ai/ha, scale 0 to 100, 0 no effect, 100 complete control, read-out: Plant response rating, Crabgrass, Large): 100%; pest or weed control at 16 g/ha ([2]; Chenopodium album, pre-emergence, 16 g ai/ha, preemergence, scale 0 to 100 (0 no effect, 100 complete control), read-out: Lambsquarters plant response rating): 98%; pest or weed control at 125 g/ha ([2]; Chenopodium album, pre-emergence, 125 g ai/ha, preemergence, scale 0 (no effect) to 100 (complete control), read-out: Lambsquarters plant response rating): 100%; pest or weed control at 62 g/ha ([2]; Chenopodium album, pre-emergence, Preemergence, 62 g ai/ha, scale 0 to 100, 0 no effect, 100 complete control, read-out: Plant response rating, Lambsquarters): 100%; plant injury at 250 g/ha ([3]; Oryza sativa, read-out: Plant response rating, Rice): 0%; pest or weed control at 16 g/ha ([4]; Sorghum halepense, pre-emergence, 16 g ai/ha, preemergence, scale 0 to 100 (0 no effect, 100 complete control), read-out: Johnsongrass plant response rating): 5%; pest or weed control at 125 g/ha ([4]; Sorghum halepense, pre-emergence, 125 g ai/ha, preemergence, scale 0 (no effect) to 100 (complete control), read-out: Johnsongrass plant response rating): 100%; pest or weed control at 62 g/ha ([4]; Sorghum halepense, pre-emergence, Preemergence, 62 g ai/ha, scale 0 to 100, 0 no effect, 100 complete control, read-out: Plant response rating, Johnsongrass): 80% |
| Fc1cccc(Oc2ncc(Cl)cn2)c1-n1cc(OCC(F)(F)F)cn1 [Compound 270] | 50 | – | 100 | – | 80 | – | 100 | 0 | 0 | – | 95 | 100 | 100 | 40 | – |
